Values after ≈ are worked out from the molar mass of the structure shown. Where two headings read alike, the source gives them in different places.
What was measured:
C. albicans SC5314 = assay: MIC, CLSI M27-S4 broth dilution, strain SC5314; type: cell-based, Candida albicans; settings: 48 hours
Method: The susceptibilities of the SC5314 and CA14C. albicans (azole sensitive) strains to all novel azole derivatives (5, 7 and 12) were determined (Table 3) using the standardized CLSI M27‐S4 broth dilution method.28
Susceptibility testing of C. albicans strains. […] Stock solutions of each agent were prepared in DMSO. Further dilutions were made in RPMI‐1640, and the final concentration of DMSO was 1 % (v/v). The final testing concentrations for all compounds ranged from 0.03–16 μg mL^−1.

C. albicans CA14 = assay: MIC, CLSI M27-S4 broth dilution, strain CA14; type: cell-based, Candida albicans; settings: 48 hours
Method: Susceptibility testing of C. albicans strains. […] Stock solutions of each agent were prepared in DMSO. […] The final testing concentrations for all compounds ranged from 0.03–16 μg mL^−1.

CaCYP51 [1] = target: T1, CaCYP51 (Candida albicans, UniProt P10613); assay: biochemical
T1 construct: made in house; host or cells: Escherichia coli
Method: […]. […] […]. CYP51 reconstitution assays. IC50 values were determined for individual azole compounds18, 30 using lanosterol as substrate. Azoles were introduced using 2.5 μL of stock solutions in DMSO. CaCYP51 assays contained 1 μM CaCYP51 and 2 μM Homo sapiens cytochrome P450 reductase (HsCPR – UniProtKB accession number P16435) and were incubated for 20 min at 37 °C. HsCYP51 assays contained 0.25 μM Δ60HsCYP51 and 1 μM HsCPR and were incubated for 10 min at 37 °C. Each IC50 experiment was performed in duplicate.

CaCYP51 [2] = target: T1, CaCYP51; assay: biochemical; type: binding
Excerpt: […]. There were no signs of compound insolubility (visible or rising background absorbance) during the ligand titrations. […] […].
The rearranged Morrison equation34 gave the best fit to the ligand saturation curves against CaCYP51 (Figure 5) indicating the selected compounds bound tightly to the purified CaCYP51 protein in free solution. Likewise the rearranged Morrison equation34 gave the best fit for binding 5 d and 5 f to Δ60HsCYP51, thus indicating tight binding in free solution (Figure 5). […].
Recombinant CYP51 protein studies. […] All azole ligand binding determinations were performed in triplicate, except the binding of compound 12 c with Δ60HsCYP51 which was performed six times. CYP51 protein samples were diluted with 0.1 M Tris⋅HCl (pH 8.1) and 25 % (w/v) glycerol to the required concentration.
(§1) Dissociation constant (K d). The K d for each CYP51‐azole complex was determined by non‐linear regression (Levenberg‐Marquardt algorithm) using a rearrangement of the Morrison equation for tight ligand binding.34 Where ligand binding was weaker, the Michaelis‐Menten equation was used to fit the data (Figure S5). K d values were determined for each of the three replicate titrations per azole compound and then mean K d values and standard deviations calculated.

Δ60HsCYP51 [3] = target: T2, Δ60HsCYP51 (Homo sapiens, UniProt Q16850); assay: Azole ligand binding titration (type II difference spectra, Kd), Δ60HsCYP51
Method: Recombinant CYP51 protein studies.
as §1

Δ60HsCYP51 [4] = target: T2, Δ60HsCYP51; assay: CYP51 reconstitution assay (IC50), Δ60HsCYP51; type: biochemical
Method: CYP51 reconstitution assays. […] Azoles were introduced using 2.5 μL of stock solutions in DMSO. […] Each IC50 experiment was performed in duplicate.

[5] = Candida albicans, SC5314, 80 % reduction in turbidity
[6] = Candida albicans, SC5314, value in brackets
[7] = Candida albicans, CA14, 80 % reduction in turbidity
[8] = Candida albicans, CA14, value in brackets
[9] = 1 μM CaCYP51, lanosterol as substrate, curve-fitted, read-out: CaCYP51 IC50
[10] = 3 μM native CaCYP51, mean of three replicates ± SD, read-out: K d CaCYP51

T2 sequence (Q16850 61-509, stated change not applied): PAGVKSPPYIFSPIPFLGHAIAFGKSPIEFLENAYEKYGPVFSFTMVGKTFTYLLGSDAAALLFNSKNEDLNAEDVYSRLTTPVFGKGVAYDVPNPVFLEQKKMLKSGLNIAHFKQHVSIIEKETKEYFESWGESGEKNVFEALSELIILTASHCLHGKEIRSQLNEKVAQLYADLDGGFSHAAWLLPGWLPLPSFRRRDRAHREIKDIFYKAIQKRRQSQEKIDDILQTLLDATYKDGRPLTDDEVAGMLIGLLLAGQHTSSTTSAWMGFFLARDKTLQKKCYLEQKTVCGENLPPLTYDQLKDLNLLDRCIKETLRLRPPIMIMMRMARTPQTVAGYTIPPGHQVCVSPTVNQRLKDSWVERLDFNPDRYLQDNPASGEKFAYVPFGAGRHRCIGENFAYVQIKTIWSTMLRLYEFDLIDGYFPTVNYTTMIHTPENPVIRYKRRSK
T2 sequence (P16435 2-677, stated change not applied, further chain): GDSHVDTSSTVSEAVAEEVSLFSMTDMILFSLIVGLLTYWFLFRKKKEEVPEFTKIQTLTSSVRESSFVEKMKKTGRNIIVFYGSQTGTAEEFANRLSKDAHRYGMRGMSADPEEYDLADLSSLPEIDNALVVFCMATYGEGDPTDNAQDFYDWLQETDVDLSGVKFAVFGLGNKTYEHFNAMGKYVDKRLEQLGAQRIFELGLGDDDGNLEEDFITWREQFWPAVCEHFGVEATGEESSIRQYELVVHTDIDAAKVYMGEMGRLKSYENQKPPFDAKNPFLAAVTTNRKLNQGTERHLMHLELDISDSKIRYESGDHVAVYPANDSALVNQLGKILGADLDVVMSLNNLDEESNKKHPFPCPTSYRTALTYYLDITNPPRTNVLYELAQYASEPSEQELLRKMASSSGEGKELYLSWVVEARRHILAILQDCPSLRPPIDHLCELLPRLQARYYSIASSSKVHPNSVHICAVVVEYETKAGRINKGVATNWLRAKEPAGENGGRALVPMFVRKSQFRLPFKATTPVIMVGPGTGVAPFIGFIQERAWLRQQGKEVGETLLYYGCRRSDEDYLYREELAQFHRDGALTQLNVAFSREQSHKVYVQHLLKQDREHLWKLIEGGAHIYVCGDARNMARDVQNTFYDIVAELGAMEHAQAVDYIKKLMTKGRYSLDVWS
T1 sequence (P10613 whole entry): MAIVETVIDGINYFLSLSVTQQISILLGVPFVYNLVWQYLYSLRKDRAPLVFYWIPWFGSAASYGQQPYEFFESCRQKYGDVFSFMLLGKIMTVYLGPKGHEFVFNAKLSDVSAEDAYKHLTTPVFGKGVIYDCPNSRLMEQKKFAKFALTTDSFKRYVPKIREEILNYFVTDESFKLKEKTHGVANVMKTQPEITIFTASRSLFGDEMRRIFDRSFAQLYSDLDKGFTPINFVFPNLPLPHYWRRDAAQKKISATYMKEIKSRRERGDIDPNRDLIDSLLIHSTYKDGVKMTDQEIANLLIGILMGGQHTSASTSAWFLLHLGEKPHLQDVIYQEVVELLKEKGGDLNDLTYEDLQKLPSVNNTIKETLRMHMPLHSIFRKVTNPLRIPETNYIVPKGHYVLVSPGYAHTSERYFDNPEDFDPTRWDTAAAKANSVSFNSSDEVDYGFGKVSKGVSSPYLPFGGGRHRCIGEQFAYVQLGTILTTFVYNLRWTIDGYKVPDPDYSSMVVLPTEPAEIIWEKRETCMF

| Structure (SMILES) | MIC (C. albicans SC5314; [5]) | MIC (C. albicans SC5314; [6]) | MIC (C. albicans CA14; [7]) | MIC (C. albicans CA14; [8]) | IC50 (CaCYP51 [1]; [9]) | Kd (CaCYP51 [2]; [10]) | melting point | also measured |
| --- | --- | --- | --- | --- | --- | --- | --- | --- |
| O=C(NCc1ccc(F)cc1)C(Cn1ccnc1)c1ccccc1 (centres unmarked) [Compound 5 b, N‐(4‐Fluorobenzyl)‐3‐(1H‐imidazol‐1‐yl)‐2‐phenylpropanamide] | 8 µg/mL | 24.7 µM | 4 µg/mL | 12.4 µM | 1410 nM | 87 ± 27 nM | 100 to 102 °C |  |
| O=C(NCc1ccc(Cl)cc1)C(Cn1ccnc1)c1ccccc1 (centres unmarked) [Compound 5 c, N‐(4‐Chlorobenzyl)‐3‐(1H‐imidazol‐1‐yl)‐2‐phenylpropanamide] |  |  |  |  | 1010 nM | 60 ± 4 nM |  | MIC SC5314 (C. albicans SC5314; 80 % reduction in turbidity): 8 µg/mL (≈ 23.5 µM); MIC (C. albicans SC5314; value in brackets): 23.5 µM; MIC CA14 (C. albicans CA14; 80 % reduction in turbidity): 4 µg/mL (≈ 11.8 µM); MIC (C. albicans CA14; value in brackets): 11.8 µM |
| O=C(NCc1ccc(Cl)cc1Cl)C(Cn1ccnc1)c1ccccc1 (centres unmarked) [Compound 5 e, N‐(2,4‐Dichlorobenzyl)‐3‐(1H‐imidazol‐1‐yl)‐2‐phenylpropanamide] | 1 µg/mL | 2.67 µM | 1 µg/mL | 2.67 µM | 990 nM | 83 ± 26 nM | 55 to 57 °C |  |
| Cc1ccc(CNC(=O)C(Cn2ccnc2)c2ccccc2)cc1 (centres unmarked) [Compound 5 g, 3‐(1H‐Imidazol‐1‐yl)‐N‐(4‐methylbenzyl)‐2‐phenylpropanamide] | 8 µg/mL | 25.1 µM | 8 µg/mL | 25.1 µM | 2450 nM | 144 ± 47 nM | 134 to 136 °C |  |
| O=C(NCc1ccc(C(F)(F)F)cc1)C(Cn1ccnc1)c1ccccc1 (centres unmarked) [Compound 5 h, 3‐(1H‐Imidazol‐1‐yl)‐2‐phenyl‐N‐(4‐(trifluoromethyl)benzyl)propanamide] | 4 µg/mL | 10.7 µM | 4 µg/mL | 10.7 µM | 2210 nM | 85 ± 19 nM |  |  |
| COc1ccc(CNC(=O)C(Cn2ccnc2)c2ccccc2)cc1 (centres unmarked) [Compound 5 i, 3‐(1H‐Imidazol‐1‐yl)‐N‐(4‐methoxybenzyl)‐2‐phenylpropanamide] | 8 µg/mL | 23.9 µM | 8 µg/mL | 23.9 µM | 910 nM | 55 ± 10 nM | 102 to 104 °C |  |
| COc1ccc(CNC(=O)C(Cn2ccnc2)c2ccccc2)cc1OC (centres unmarked) [Compound 5 j, N‐(3,4‐Dimethoxybenzyl)‐3‐(1H‐imidazol‐1‐yl)‐2‐phenylpropanamide] | > 16 µg/mL | > 43.8 µM | > 16 µg/mL | > 43.8 µM | 6150 nM |  |  |  |
| O=C(NCc1ccc(Cl)cc1)C(Cn1cncn1)c1ccccc1 (centres unmarked) [Compound 5 k, N‐(4‐Chlorobenzyl)‐2‐phenyl‐3‐(1H‐1,2,4‐triazol‐1‐yl)propanamide] |  |  |  |  | 4320 nM | 167 ± 17 nM |  | MIC SC5314 (C. albicans SC5314; 80 % reduction in turbidity): 8 µg/mL (≈ 23.5 µM); MIC (C. albicans SC5314; value in brackets): 23.5 µM; MIC CA14 (C. albicans CA14; 80 % reduction in turbidity): 8 µg/mL (≈ 23.5 µM); MIC (C. albicans CA14; value in brackets): 23.5 µM |
| C=C(C(=O)NCc1ccc(F)cc1)c1ccccc1 [Compound 6 b, N‐(4‐Fluorobenzyl)‐2‐phenylacrylamide] |  |  |  |  |  |  | 108 to 110 °C |  |
| C=C(C(=O)NCc1ccc(Cl)cc1)c1ccc(Cl)cc1 [Compound 6 d, N‐(4‐Chlorobenzyl)‐2‐(4‐chlorophenyl)acrylamide] |  |  |  |  |  |  | 108 to 110 °C |  |
| C=C(C(=O)NCc1ccc(Cl)cc1Cl)c1ccccc1 [Compound 6 e, N‐(2,4‐Dichlorobenzyl)‐2‐phenylacrylamide] |  |  |  |  |  |  | 66 to 68 °C |  |
| C=C(C(=O)NCc1ccc(Cl)cc1Cl)c1ccc(Cl)cc1 [Compound 6 f, 2‐(4‐Chlorophenyl)‐N‐(2,4‐dichlorobenzyl)acrylamide] |  |  |  |  |  |  | 104 to 106 °C |  |
| C=C(C(=O)NCc1ccc(C)cc1)c1ccccc1 [Compound 6 g, N‐(4‐Methylbenzyl)‐2‐phenylacrylamide] |  |  |  |  |  |  | 92 to 94 °C |  |
| C=C(C(=O)NCc1ccc(C(F)(F)F)cc1)c1ccccc1 [Compound 6 h, 2‐Phenyl‐N‐(4‐(trifluoromethyl)benzyl)acrylamide] |  |  |  |  |  |  | 88 to 90 °C |  |
| C=C(C(=O)NCc1ccc(OC)cc1)c1ccccc1 [Compound 6 i, N‐(4‐Methoxybenzyl)‐2‐phenylacrylamide] |  |  |  |  |  |  | 100 to 102 °C |  |
| C=C(C(=O)NCc1ccc(OC)c(OC)c1)c1ccccc1 [Compound 6 j, N‐(3,4‐Dimethoxybenzyl)‐2‐phenylacrylamide] |  |  |  |  |  |  | 102 to 104 °C |  |
| C=C(C(=O)NCc1ccc(NC(=O)OC(C)(C)C)cc1)c1ccccc1 [Compound 6 l, tert‐Butyl (4‐((2‐phenylacrylamido)methyl)phenyl)carbamate] |  |  |  |  |  |  | 136 to 138 °C |  |
| Nc1ccc(CNC(=O)C(Cn2cncn2)c2ccccc2)cc1.O=C(O)C(F)(F)F (centres unmarked) [Compound 7] |  |  |  |  | 1960 nM |  |  | MIC SC5314 (C. albicans SC5314; 80 % reduction in turbidity): > 16 µg/mL; MIC (C. albicans SC5314; value in brackets): > 36.8 µM; MIC CA14 (C. albicans CA14; 80 % reduction in turbidity): > 16 µg/mL; MIC (C. albicans CA14; value in brackets): > 36.8 µM |
| O=C(NCc1ccc(NS(=O)(=O)c2ccccc2)cc1)C(Cn1cncn1)c1ccccc1 (centres unmarked) [Compound 12 a, 2‐Phenyl‐N‐(4‐(phenylsulfonamido)benzyl)‐3‐(1H‐1,2,4‐triazol‐1‐yl)propanamide] | 4 µg/mL | 8.67 µM | 4 µg/mL | 8.67 µM | 540 nM | 115 ± 16 nM | 96 to 98 °C |  |
| O=C(NCc1ccc(NS(=O)(=O)c2ccc(F)cc2)cc1)C(Cn1cncn1)c1ccccc1 (centres unmarked) [Compound 12 b, N‐(4‐((4‐Fluorophenyl)sulfonamido)benzyl)‐2‐phenyl‐3‐(1H‐1,2,4‐triazol‐1‐yl) propanamide] |  |  |  |  | 200 nM | 55 ± 27 nM |  | MIC SC5314 (C. albicans SC5314; 80 % reduction in turbidity): 4 µg/mL (≈ 8.34 µM); MIC (C. albicans SC5314; value in brackets): 8.34 µM; MIC CA14 (C. albicans CA14; 80 % reduction in turbidity): 2 µg/mL (≈ 4.17 µM); MIC (C. albicans CA14; value in brackets): 4.17 µM |
| COc1ccc(S(=O)(=O)Nc2ccc(CNC(=O)C(Cn3cncn3)c3ccccc3)cc2)cc1 (centres unmarked) [Compound 12 d, 2‐Phenyl‐N‐(4‐(4‐methoxyphenylsulfonamido)benzyl)‐3‐(1H‐1,2,4‐triazol‐1‐yl)propanamide] | 8 µg/mL | 16.3 µM | 4 µg/mL | 8.14 µM | 790 nM | 110 ± 22 nM |  |  |
| C=C(C(=O)NCc1ccc(NS(=O)(=O)c2ccc(F)cc2)cc1)c1ccccc1 [Compound 13 b, N‐(4‐((4‐Fluorophenyl)sulfonamido)benzyl)‐2‐phenylacrylamide] |  |  |  |  |  |  | 136 to 138 °C |  |
| C=C(C(=O)NCc1ccc(NS(=O)(=O)c2ccc(OC)cc2)cc1)c1ccccc1 [Compound 13 d, N‐(4‐((4‐Methoxyphenyl)sulfonamido)benzyl)‐2‐phenylacrylamide] |  |  |  |  |  |  | 98 to 100 °C |  |
| OC(Cn1cncn1)(Cn1cncn1)c1ccc(F)cc1F [fluconazole, reference compound] | 0.125 µg/mL | 0.41 µM | 0.125 µg/mL | 0.41 µM |  |  |  | IC50 (CaCYP51 [1]): 310 nM; Ki (CaCYP51 [1]): 30 nM; Kd (CaCYP51 [2]): 41 ± 13 nM; Type of difference binding spectra with Δ60HsCYP51 (Δ60HsCYP51 [3]; titration with Δ60HsCYP51): type II difference binding spectra |
| CC[C@@H]([C@H](C)O)n1ncn(-c2ccc(N3CCN(c4ccc(OC[C@@H]5CO[C@@](Cn6cncn6)(c6ccc(F)cc6F)C5)cc4)CC3)cc2)c1=O [posaconazole, reference compound] |  |  |  |  |  | 43 ± 11 nM |  | IC50 (Δ60HsCYP51 [4]): 123000 nM; Kd (Δ60HsCYP51 [3]): 204 ± 63 nM |
| C[C@@H](c1ncncc1F)[C@](O)(Cn1cncn1)c1ccc(F)cc1F [voriconazole, reference compound] |  |  |  |  |  |  |  | IC50 (Δ60HsCYP51 [4]): 78000 nM |

Reference: PMC7496091, “Small‐Molecule Inhibitors Targeting Sterol 14α‐Demethylase (CYP51): Synthesis, Molecular Modelling and Evaluation Against Candida albicans” (Chemmedchem, 2020)
